Assay results published in ChEMBL document CHEMBL1158175, “Substituted benzylaminoalkylindoles with preference for the sigma2 binding site” (Eur J Med Chem, 2008).

What was measured:
[1] = species: Rattus norvegicus; assay: Displacement of [3H]DTH from sigma 2 receptor in rat liver homogenate at 100 nM in presence of (+)-pentazocine; format: tissue-based
[2] = target: Sigma non-opioid intracellular receptor 1 (Rattus norvegicus) (UniProt Q9R0C9); assay: Displacement of [3H] (+)-pentazocine from sigma 1 receptor in rat liver homogenate at 100 nM; format: tissue-based
Sequence of Sigma non-opioid intracellular receptor 1 (Rattus norvegicus) (Q9R0C9 whole entry): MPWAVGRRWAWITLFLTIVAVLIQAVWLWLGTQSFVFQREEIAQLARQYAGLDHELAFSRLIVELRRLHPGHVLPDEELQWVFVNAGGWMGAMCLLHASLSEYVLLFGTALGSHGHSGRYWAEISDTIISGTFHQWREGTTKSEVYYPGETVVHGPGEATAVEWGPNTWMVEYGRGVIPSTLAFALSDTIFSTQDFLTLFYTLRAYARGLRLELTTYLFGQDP

[3] = Displacement of [3H]DTH from sigma 2 receptor in rat liver homogenate in presence of (+)-pentazocine; format: tissue-based
[4] = target: Sigma non-opioid intracellular receptor 1 (Rattus norvegicus, UniProt Q9R0C9); assay: Displacement of [3H] (+)-pentazocine from sigma 1 receptor in rat liver homogenate; format: tissue-based
Sequence of Sigma non-opioid intracellular receptor 1 (Q9R0C9 whole entry): as above

[5] = species: Rattus norvegicus; assay: Selectivity ratio of Ki for rat sigma 1 receptor to Ki for rat sigma 2 receptor

SMILES	Activity [1] [%]	Activity [2] [%]	IC50 [3] [nM]	Ki [3] [nM]	Ki [4] [nM]	Ratio Ki [5]
CN(CCCCc1cn(-c2ccc(F)cc2)c2ccccc12)Cc1ccc(Br)cc1	84	70	–	–	–	–
Fc1ccc(-n2cc(CCCCN3CCC4(CC3)OCc3ccccc34)c3ccccc32)cc1 [SIRAMESINE]	–	–	0.12	–	–	–
CN(CCCc1cn(-c2ccc(F)cc2)c2ccccc12)Cc1ccc(Br)cc1	54	71	–	–	–	–
Cc1cccc(CN(C)CCCc2cn(-c3ccc(F)cc3)c3ccccc23)c1	64	63	–	–	–	–
COc1cccc2c1CCCC2CCCCN1CCN(C2CCCCC2)CC1 (stereo not drawn)	–	–	–	0.34	–	–
Cc1ccc(CN(C)CCCCc2cn(-c3ccc(F)cc3)c3ccccc23)cc1	87	71	–	–	–	–
CN(CCCc1cn(-c2ccc(F)cc2)c2ccccc12)Cc1ccc(Cl)cc1	59	68	–	–	–	–
CN(CCCCc1cn(-c2ccc(F)cc2)c2ccccc12)Cc1cccc(Cl)c1	89	22	–	25.6	201	7.9
CN(CCCCc1cn(-c2ccc(F)cc2)c2ccccc12)Cc1ccccc1Br	86	46	–	–	–	–
CN(CCCCc1cn(-c2ccc(F)cc2)c2ccccc12)Cc1cccc(Br)c1	78	28	–	–	–	–
CN(CCCCc1cn(-c2ccc(F)cc2)c2ccccc12)Cc1ccc(Cl)cc1	85	72	–	–	–	–
CN(CCCCc1cn(-c2ccc(F)cc2)c2ccccc12)Cc1ccc(Cl)c(Cl)c1	69	10	–	–	–	–
CN(CCCc1cn(-c2ccc(F)cc2)c2ccccc12)Cc1ccccc1	27	78	–	444	20.8	0.05

The remaining lines, values ahead:

Activity [1] [%]	Activity [2] [%]	IC50 [3] [nM]	Ki [3] [nM]	Ki [4] [nM]	Ratio Ki [5]	SMILES
87	58	–	–	–	–	CN(CCCCc1cn(-c2ccc(F)cc2)c2ccccc12)Cc1ccccc1Cl
93	37	–	5.9	20.8	0.05	Cc1ccc(CN(C)CCCCc2cn(-c3ccc(F)cc3)c3ccccc23)cc1C
43	41	–	–	–	–	CN(CCCc1cn(-c2ccc(F)cc2)c2ccccc12)Cc1ccccc1Br
78	69	–	–	–	–	Cc1ccc(CN(C)CCCc2cn(-c3ccc(F)cc3)c3ccccc23)cc1
40	56	–	–	–	–	CN(CCCc1cn(-c2ccc(F)cc2)c2ccccc12)Cc1ccccc1Cl
85	38	–	46.9	118	2.5	Cc1ccc(CN(C)CCCc2cn(-c3ccc(F)cc3)c3ccccc23)cc1C
62	40	–	–	–	–	CN(CCCc1cn(-c2ccc(F)cc2)c2ccccc12)Cc1cccc(Br)c1
85	51	–	–	–	–	Cc1cccc(CN(C)CCCCc2cn(-c3ccc(F)cc3)c3ccccc23)c1
88	49	–	–	–	–	CN(CCCCc1cn(-c2ccc(F)cc2)c2ccccc12)Cc1ccccc1F
39	28	–	–	–	–	CN(CCCc1cn(-c2ccc(F)cc2)c2ccccc12)Cc1ccc(Cl)c(Cl)c1
68	76	–	57.7	43	0.76	CN(CCCCc1cn(-c2ccc(F)cc2)c2ccccc12)Cc1ccccc1
46	59	–	–	–	–	CN(CCCc1cn(-c2ccc(F)cc2)c2ccccc12)Cc1ccccc1F
59	42	–	124	98.9	0.8	CN(CCCc1cn(-c2ccc(F)cc2)c2ccccc12)Cc1cccc(Cl)c1
